Experiments:
[1] = tested on: acyl coenzyme A: cholesterol acyltransferase (ACAT); experiment: Test for ACAT inhibitory activity (microsome fraction prepared from rabbit liver); assay type: biochemical; conditions: 10^-6 M, 37° C., 10 minutes
Protocol: Test for ACAT inhibitory activity The test for ACAT inhibitory activity was performed by a modified method of the method of Brecher et al. Biochim. Biophys. […] The radioactivity of the cholesterol ester spot was determined by a liquid scintillation counter. The radio-activity for each test compound was calculated by the difference between the radioactivity with the microsome fraction and the radioactivity without the microsome fraction. The radioactivity of control was determined in a similar manner without any test compound.

[2] = tested on: male ddy strain mice; experiment: Test for acute toxicity (minimum lethal dose, oral); assay type: in vivo; conditions: mortality observed seven days after administration
Protocol: Groups of 3 male ddy strain mice weighing 20±1 g were used. The test compounds were orally administered. Seven days after administration, the mortality was observed and the minimum lethal dose (MLD) was determined.

[3] = tested on: serum cholesterol level; experiment: Inhibition effect on serum cholesterol level in hamster with dietary hyperlipemia; assay type: in vivo; conditions: Golden hamster, 2% cholesterol feed for 3 days; 30 mg/kg orally once a day
Protocol: Inhibition effect on serum cholesterol level in hamster with dietary hyperlipemia
Golden hamster (SLC, male, age of 6 weeks) was made free access to feed containing 2% cholesterol for 3 days. Each test compound was suspended in olive oil and orally administered once a day in a dose of 30 mg/kg during the feeding. (A: Test Group administered with the test compound, B: Control Group administered with olive oil only). In Group C, feed free from cholesterol was fed for 3 days. On the fourth day, blood sample was collected from the descending aorta under pentobarbital anesthesia and cholesterol level in serum was determined. The total cholesterol level in serum of each group was determined and the inhibition rate for the test compound was calculated according to the following equation. [formula]

SMILES	Inhibiting rate(%) of ACAT [1] [%]	Acute Toxicity (MLD), minimum lethal dose [2] [mg/kg]	Inhibition Rate (%) of total cholesterol level in serum [3] [%]
CC(C)c1cccc(C(C)C)c1NC(=O)C1c2ccccc2COc2ccc(C(F)(F)F)cc21 (stereo not drawn) [Compound 20, 6,11-Dihydro-N-(2,6-diisopropylphenyl) -2-trifluoromethyldibenz[b,e]oxepin-11-carboxamide]	84	> 300	63
CC(C)c1cccc(C(C)C)c1NC(=O)C1c2ccccc2COc2ccc(Br)cc21 (single isomer, unassigned) [Compound 60, (-) -2-Bromo-6,11-dihydro-N-(2,6-diisopropylphenyl) dibenz[b,e]oxepin-11-carboxamide]	99	–	–
CCc1cccc(CC)c1NC(=O)C1c2ccccc2COc2ccc(C)cc21 (stereo not drawn) [Compound 3, N-(2,6-Diethylphenyl) -6,11-dihydro-2-methyldibenz[b,e]-oxepin-11-carboxamide]	77	> 300	–
Cc1ccc2c(c1)C(C(=O)Nc1c(C(C)C)cccc1C(C)C)c1ccccc1CO2 (stereo not drawn) [Compound 4, 6,11-Dihydro-N-(2,6-diisopropylphenyl)-2-methyldibenz[b,e]-oxepin-11-carboxamide]	98	> 300	70
CC(C)c1cccc(C(C)C)c1NC(=O)C1c2ccccc2COc2cc(Br)ccc21 (stereo not drawn) [Compound 29, 3-Bromo-6,11-dihydro-N-(2,6-diisopropylphenyl)dibenz[b,e]-oxepin-11-carboxamide]	86	> 300	–
CC(C)c1cccc(C(C)C)c1NC(=O)C1c2ccccc2COc2ccc(C#N)cc21 (stereo not drawn) [Compound 23, 2-Cyano-6,11-dihydro-N-(2,6-diisopropylphenyl)dibenz[b,e]-oxepin-11-carboxamide]	69	> 300	–
Cc1cc(Br)c2c(c1)C(C(=O)Nc1c(C(C)C)cccc1C(C)C)c1ccccc1CO2 (stereo not drawn) [Compound 21, 4-Bromo-6,11-dihydro-N-(2,6-diisopropylphenyl) -2-methyldibenz[b,e]oxepin-11-carboxamide]	–	–	67
O=C(Nc1c(Cl)cccc1Cl)C1c2ccccc2COc2cc(Br)ccc21 (stereo not drawn) [Compound 28, 3-Bromo-N-(2,6-dichlorophenyl)-6,11-dihydrodibenz[b,e]oxepin-11-carboxamide]	52	> 300	–
CC(C)c1cccc(C(C)C)c1NC(=O)C1c2ccccc2COc2ccc(F)cc21 (stereo not drawn) [Compound 16, 2-Fluoro-6,11-dihydro-N-(2,6-diisopropylphenyl)dibenz[b,e]-oxepin-11-carboxamide]	81	> 300	–
Cc1ccc2c(c1)C(C(=O)Nc1ccccc1C(C)C)c1ccccc1CO2 (stereo not drawn) [Compound 5, 6,11-Dihydro-N-(2-isopropylphenyl)-2-methyldibenz[b,e]-oxepin-11-carboxamide]	56	> 300	–
CCc1cccc(CC)c1NC(=O)C1c2ccccc2COc2ccc(Br)cc21 (stereo not drawn) [Compound 27, 2-Bromo-N-(2,6-diethylphenyl)-6,11-dihydrodibenz[b,e]oxepin-11-carboxamide]	80	> 300	–
COC(=O)c1ccc2c(c1)C(C(=O)Nc1c(C(C)C)cccc1C(C)C)c1ccccc1CO2 (stereo not drawn) [Compound 24, 6,11-Dihydro-N-(2,6-diisopropylphenyl)-2-methoxycarbonyl-dibenz[b,e]oxepin-11-carboxamide]	90	> 300	–
CC(C)c1cccc(C(C)C)c1NC(=O)C1c2ccccc2COc2ccc(Cl)cc21 (stereo not drawn) [Compound 17, 2-Chloro-6,11-dihydro-N-(2,6-diisopropylphenyl)dibenz[b,e]-oxepin-11-carboxamide]	94	> 300	–
CC(C)c1cccc(C(C)C)c1NC(=O)C1c2cc(Br)ccc2OCc2ncccc21 (stereo not drawn) [Compound 42]	91	–	–
CC(C)c1cccc(C(C)C)c1NC(=O)C1c2ccccc2COc2ccc(Br)cc21 (single isomer, unassigned) [Compound 61, (+) -2-Bromo-6,11-dihydro-N-(2,6-diisopropylphenyi)dibenz[b,e]oxepin-11-carboxamide]	92	–	–

Continued, in another order:

Inhibiting rate(%) of ACAT [1] [%]	SMILES	Acute Toxicity (MLD), minimum lethal dose [2] [mg/kg]	Inhibition Rate (%) of total cholesterol level in serum [3] [%]
97	Cc1ccc(C)c2c1OCc1ccccc1C2C(=O)Nc1c(C(C)C)cccc1C(C)C (stereo not drawn) [Compound 49, 6,11-Dihydro-N-(2,6-diisopropylphenyl)-1,4-dimethyldibenz[b,e]oxepin-11-carboxamide]	–	–
91	O=C(Nc1c(Cl)cccc1Cl)C1c2ccccc2COc2ccc(Br)cc21 (stereo not drawn) [Compound 39, 2-Bromo-N-(2,6-dichlorophenyl)-6,11-dihydrodibenz[b,e]oxepin-11-carboxamide]	–	–
99	Cc1ccc2c(c1)C(C(=O)Nc1c(C(C)C)cccc1C(C)C)c1ccccc1CC2 (stereo not drawn) [Compound 68, 10,11-Dihydro-N-(2,6-diisopropylphenyl)-3-methyl-5H-dibenz[a,d]cyclohepten-5-carboxamide]	–	–
100	Cc1ccc(Cl)c2c1C(C(=O)Nc1c(C(C)C)cccc1C(C)C)c1ccccc1CO2 (stereo not drawn) [Compound 64, 4-Chloro-6,11-dihydro-N-(2,6-diisopropylphenyl) -1-methyldibenz[b,e]oxepin-11-carboxamide]	–	–
96	Cc1cc2c(cc1C)C(C(=O)Nc1c(C(C)C)cccc1C(C)C)c1ccccc1CO2 (stereo not drawn) [Compound 48, 6,11-Dihydro-N-(2,6-diisopropylphenyl)-2,3-dimethyldibenz[b,e]oxepin-11-carboxamide]	–	–
100	CC(C)c1cccc(C(C)C)c1NC(=O)C1c2ccccc2COc2c1cc(Br)cc2[N+](=O)[O-] (stereo not drawn) [Compound 53, 2-Bromo-6,11-dihydro-N-(2,6-diisopropylphenyl)-4-nitrodibenz[b,e]oxepin-11-carboxamide]	–	–
98	CCc1cccc(CC)c1NC(=O)C1c2ccccc2COc2cc(C)c(Br)c(C)c21 (stereo not drawn) [Compound 57, 2-Bromo-N-(2,6-diethylphenyl)-6,11-dihydro-1,3-dimethyldibenz[b,e]oxepin-11-carboxamide]	–	–
95	CSc1cc(C(C)C)c(NC(=O)C2c3ccccc3COc3ccc(Br)cc32)c(C(C)C)c1 (stereo not drawn) [Compound 44, 2-Bromo-6,11-dihydro-N-(2,6-diisopropyl-4-methylthiophenyl)dibenz[b,e]oxepin-11-carboxamide]	–	–
66	Cc1ccc2c(c1)C(C(=O)Nc1c(C)cccc1C)c1ccccc1CO2 (stereo not drawn) [Compound 2, 6,11-Dihydro-2-methyl-N-(2,6-dimethylphenyl) dibenz[b,e]-oxepin-11-carboxamide]	–	–
93	CCc1cccc(CC)c1NC(=O)C1c2ccccc2COc2c(C)ccc(C)c21 (stereo not drawn) [Compound 50, 6,11-Dihydro-N-(2,6-diethylphenyl) -1,4-dimethyldibenz[b,e]-oxepin-11-carboxamide]	–	–
100	CC(C)c1cccc(C(C)C)c1NC(=O)C1c2ccccc2COc2c1cc(Br)cc2N(C)C.Cl (stereo not drawn) [Compound 55, 2-Bromo-6,11-dihydro-N-(2,6-diisopropylphenyl)-4-dimethylaminodibenz[b,e]oxepin-11-carboxamide hydrochloride]	–	–
78	CSc1cc(C(C)C)c(NC(=O)C2c3ccccc3COc3ccc(C)cc32)c(C(C)C)c1 (stereo not drawn) [Compound 30, 6,11-Dihydro-N-(2,6-diisopropyl-4-methylthiophenyl)-2-methyldibenz[b,e]oxepin-11-carboxamide]	–	–
99	Cc1cc2c(c(C)c1Br)C(C(=O)Nc1c(C(C)C)cccc1C(C)C)c1ccccc1CO2 (stereo not drawn) [Compound 56, 2-Bromo-6,11-dihydro-N-(2,6-diisopropylphenyl)-1,3-dimethyldibenz[b,e]oxepin-11-carboxamide]	–	–
98	CC(C)c1cccc(C(C)C)c1NC(=O)C1c2ccccc2CCc2cc(Br)ccc21 (stereo not drawn) [Compound 69, 2-Bromo-10,11-dihydro-N-(2,6-diisopropylphenyl) -5H-dibenz[a,d]cyclohepten-5-carboxamide]	–	–
100	Cc1cc(C)c2c(c1)OCc1ccccc1C2C(=O)Nc1c(C(C)C)cccc1C(C)C (stereo not drawn) [Compound 62, 6,11-Dihydro-N-(2,6-diisopropylphenyl)-1,3-dimethyldibenz-[b,e]oxepin-11-carboxamide]	–	–
99	COC(=O)c1cc(C)cc2c1OCc1ccccc1C2C(=O)Nc1c(C(C)C)cccc1C(C)C (stereo not drawn) [Compound 51, Methyl 6,11-dihydro-11-(2,6-diisopropylphenyl)aminocarbonyl-2-methyldibenz[b,e]oxepin-4-carboxylate]	–	–
100	Cc1cc(Cl)c2c(c1C)C(C(=O)Nc1c(C(C)C)cccc1C(C)C)c1ccccc1CO2 (stereo not drawn) [Compound 59, 4-Chloro-6,11-dihydro-N-(2,6-diisopropylphenyl)-1,2-dimethyldibenz[b,e]oxepin-11-carboxamide]	–	–

— patent US5340807A, “Tricyclic compounds and intermediates thereof” (priority 1991, dated 1994)
